Tested on: 349418-098-R-PDC spheroids, viability, % test/control
Assay: Anticancer human tumor 349418-098-R-PDC patient-derived lung adenocarcinoma cell line growth inhibition [IpAb]
Details: spheroids with HUVEC and MSC; for IC50: curve of first compound; for viability, T/C: stronger effect = lower value
How it was run: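 Combinations with ipatasertib or abemaciclib were tested on tumour spheroids holding HUVEC (25%) and MSC (15%) alongside 60% malignant cells. Top concentration was at or near clinical Cmax (10 microM if undefined), descending in half-log steps.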

[1] = second compound 0.1 µM, first compound 0.0316 µM
[2] = second compound 0.1 µM, first compound 0.1 µM
[3] = second compound 0.1 µM, first compound 0.316 µM
[4] = second compound 0.1 µM, first compound 1 µM
[5] = second compound 0.1 µM, first compound 3.16 µM
[6] = second compound 0.1 µM, first compound 10 µM
[7] = second compound 0.316 µM, first compound 0.0316 µM
[8] = second compound 0.316 µM, first compound 0.1 µM
[9] = second compound 0.316 µM, first compound 0.316 µM
[10] = second compound 0.316 µM, first compound 1 µM
[11] = second compound 0.316 µM, first compound 3.16 µM
[12] = second compound 0.316 µM, first compound 10 µM
[13] = second compound 1 µM, first compound 0.0316 µM
[14] = second compound 1 µM, first compound 0.1 µM
[15] = second compound 1 µM, first compound 0.316 µM
[16] = second compound 1 µM, first compound 1 µM
[17] = second compound 1 µM, first compound 3.16 µM
[18] = second compound 1 µM, first compound 10 µM
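Note: spheroids exposed to compounds for 7 days.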

Question: Which IC50 (second compound 0.1 µM) does the source give for `Cn1ncc(Cl)c1-c1cc(C(=O)NC(CN)Cc2cccc(F)c2)sc1Cl` (stereo not given) + CC(C)NCC(C(=O)N1CCN(c2ncnc3c2C(C)CC3O)CC1)c1ccc(Cl)cc1 here?
Answer: The IC50 was 90.8 nM.

Question: And the IC50 (second compound 0.316 µM)?
Answer: The IC50 was < 31.6 nM.

Question: And the IC50 (second compound 1 µM)?
Answer: Its IC50 is < 31.6 nM.

Question: And the IC50 (second compound 3.16 µM)?
Answer: The IC50 was < 31.6 nM.

Question: What about the IC50 (second compound 10 µM) of the same compound?
Answer: Its IC50 is < 31.6 nM.

Question: And the viability, T/C [1]?
Answer: The viability, T/C was 79.5%.

Question: And the viability, T/C [2]?
Answer: Its viability, T/C is 45.1%.

Question: What about the viability, T/C [3] of the same compound?
Answer: The viability, T/C was 29.4%.

Question: What about the viability, T/C [4] of the same compound?
Answer: The viability, T/C was 12.3%.

Question: And the viability, T/C [5]?
Answer: The viability, T/C was 6.88%.

Question: What about the viability, T/C [6] of the same compound?
Answer: The viability, T/C was 0.08%.

Question: And the viability, T/C [7]?
Answer: The viability, T/C was 49.7%.

Question: What about the viability, T/C [8] of the same compound?
Answer: The viability, T/C was 31.8%.

Question: And the viability, T/C [9]?
Answer: The viability, T/C was 25.3%.

Question: And the viability, T/C [10]?
Answer: The viability, T/C was 12.1%.

Question: What about the viability, T/C [11] of the same compound?
Answer: The viability, T/C was 7.48%.

Question: And the viability, T/C [12]?
Answer: Its viability, T/C is 0.08%.

Question: And the viability, T/C [13]?
Answer: The viability, T/C was 23.2%.

Question: And the viability, T/C [14]?
Answer: Its viability, T/C is 22.2%.

Question: And the viability, T/C [15]?
Answer: The viability, T/C was 15.9%.

Question: What about the viability, T/C [16] of the same compound?
Answer: The viability, T/C was 10.1%.

Question: What about the viability, T/C [17] of the same compound?
Answer: Its viability, T/C is 6.54%.

Question: And the viability, T/C [18]?
Answer: Its viability, T/C is 0.08%.

Question: And the viability, T/C (second compound 3.16 µM, first compound 0.0316 µM)?
Answer: Its viability, T/C is 15.3%.

Question: And the viability, T/C (second compound 3.16 µM, first compound 0.1 µM)?
Answer: The viability, T/C was 12.2%.

Question: And the viability, T/C (second compound 3.16 µM, first compound 0.316 µM)?
Answer: The viability, T/C was 10.8%.

Question: And the viability, T/C (second compound 3.16 µM, first compound 1 µM)?
Answer: The viability, T/C was 8.53%.

Question: What about the viability, T/C (second compound 3.16 µM, first compound 3.16 µM) of the same compound?
Answer: The viability, T/C was 6.62%.

Question: What about the viability, T/C (second compound 3.16 µM, first compound 10 µM) of the same compound?
Answer: Its viability, T/C is 0.19%.

Question: What about the viability, T/C (second compound 10 µM, first compound 0.0316 µM) of the same compound?
Answer: The viability, T/C was 7.77%.

Question: And the viability, T/C (second compound 10 µM, first compound 0.1 µM)?
Answer: The viability, T/C was 8.14%.

Question: And the viability, T/C (second compound 10 µM, first compound 0.316 µM)?
Answer: Its viability, T/C is 7.56%.

Question: What about the viability, T/C (second compound 10 µM, first compound 1 µM) of the same compound?
Answer: Its viability, T/C is 6.63%.

Question: What about the viability, T/C (second compound 10 µM, first compound 3.16 µM) of the same compound?
Answer: Its viability, T/C is 5.87%.

Question: What about the viability, T/C (second compound 10 µM, first compound 10 µM) of the same compound?
Answer: Its viability, T/C is 0.18%.

Question: What does the source list for `C=CCn1c(=O)c2cnc(Nc3ccc(N4CCN(C)CC4)cc3)nc2n1-c1cccc(C(C)(C)O)n1` + CCN1CCN(Cc2ccc(Nc3ncc(F)c(-c4cc(F)c5nc(C)n(C(C)C)c5c4)n3)nc2)CC1?
Answer: IC50 (second compound 0.01 µM): 164 nM; IC50 (second compound 0.0316 µM): 101 nM; IC50 (second compound 0.1 µM): < 31.6 nM; IC50 (second compound 0.316 µM): < 31.6 nM; IC50 (second compound 1 µM): < 31.6 nM; viability, T/C (second compound 0.01 µM, first compound 0.0316 µM): 78.5%; viability, T/C (second compound 0.01 µM, first compound 0.1 µM): 76.4%; viability, T/C (second compound 0.01 µM, first compound 0.316 µM): 15.1%; viability, T/C (second compound 0.01 µM, first compound 1 µM): 5.22%; viability, T/C (second compound 0.01 µM, first compound 3.16 µM): 4.65%; viability, T/C (second compound 0.01 µM, first compound 10 µM): 5.36%; viability, T/C (second compound 0.0316 µM, first compound 0.0316 µM): 65.1%; viability, T/C (second compound 0.0316 µM, first compound 0.1 µM): 50.2%; viability, T/C (second compound 0.0316 µM, first compound 0.316 µM): 13.4%; viability, T/C (second compound 0.0316 µM, first compound 1 µM): 6.17%; viability, T/C (second compound 0.0316 µM, first compound 3.16 µM): 4.95%; viability, T/C (second compound 0.0316 µM, first compound 10 µM): 4.75%; viability, T/C [1]: 38.4%; viability, T/C [2]: 30%; viability, T/C [3]: 13.3%; viability, T/C [4]: 7%; viability, T/C [5]: 6.21%; viability, T/C [6]: 5.25%; viability, T/C [7]: 23.6%; viability, T/C [8]: 20.2%; viability, T/C [9]: 14.4%; viability, T/C [10]: 10%; viability, T/C [11]: 7.67%; viability, T/C [12]: 6.46%; viability, T/C [13]: 17.9%; viability, T/C [14]: 15.5%; viability, T/C [15]: 11.4%; viability, T/C [16]: 9.92%; viability, T/C [17]: 6.96%; viability, T/C [18]: 5.12%

Question: Which IC50 (second compound 0.01 µM) does the source give for `Cn1cnc2c(F)c(Nc3ccc(Br)cc3Cl)c(C(=O)NOCCO)cc21` + CCN1CCN(Cc2ccc(Nc3ncc(F)c(-c4cc(F)c5nc(C)n(C(C)C)c5c4)n3)nc2)CC1 here?
Answer: Its IC50 is < 9.49 nM.

Question: What about the IC50 (second compound 0.0316 µM) of the same compound?
Answer: The IC50 was < 9.49 nM.

Question: And the IC50 (second compound 0.1 µM)?
Answer: The IC50 was < 9.49 nM.

Question: And the IC50 (second compound 0.316 µM)?
Answer: Its IC50 is < 9.49 nM.

Question: And the IC50 (second compound 1 µM)?
Answer: Its IC50 is < 9.49 nM.

Question: What about the viability, T/C (second compound 0.01 µM, first compound 0.00949 µM) of the same compound?
Answer: The viability, T/C was 41.1%.

Question: What about the viability, T/C (second compound 0.01 µM, first compound 0.03 µM) of the same compound?
Answer: Its viability, T/C is 33.9%.

Question: And the viability, T/C (second compound 0.01 µM, first compound 0.0949 µM)?
Answer: The viability, T/C was 27.2%.

Question: And the viability, T/C (second compound 0.01 µM, first compound 0.3 µM)?
Answer: Its viability, T/C is 28.7%.

Question: And the viability, T/C (second compound 0.01 µM, first compound 0.949 µM)?
Answer: The viability, T/C was 17.3%.

Question: What about the viability, T/C (second compound 0.01 µM, first compound 3 µM) of the same compound?
Answer: The viability, T/C was 8.8%.

Question: And the viability, T/C (second compound 0.0316 µM, first compound 0.00949 µM)?
Answer: The viability, T/C was 26.7%.

Question: And the viability, T/C (second compound 0.0316 µM, first compound 0.03 µM)?
Answer: The viability, T/C was 21.7%.

Question: What about the viability, T/C (second compound 0.0316 µM, first compound 0.0949 µM) of the same compound?
Answer: Its viability, T/C is 18.9%.

Question: And the viability, T/C (second compound 0.0316 µM, first compound 0.3 µM)?
Answer: Its viability, T/C is 17.9%.

Question: What about the viability, T/C (second compound 0.0316 µM, first compound 0.949 µM) of the same compound?
Answer: The viability, T/C was 12.1%.

Question: What about the viability, T/C (second compound 0.0316 µM, first compound 3 µM) of the same compound?
Answer: Its viability, T/C is 7.93%.

Question: What about the viability, T/C (second compound 0.1 µM, first compound 0.00949 µM) of the same compound?
Answer: The viability, T/C was 15.1%.

Question: What about the viability, T/C (second compound 0.1 µM, first compound 0.03 µM) of the same compound?
Answer: Its viability, T/C is 14.7%.

Question: What about the viability, T/C (second compound 0.1 µM, first compound 0.0949 µM) of the same compound?
Answer: Its viability, T/C is 12%.

Question: And the viability, T/C (second compound 0.1 µM, first compound 0.3 µM)?
Answer: The viability, T/C was 11.2%.

Question: And the viability, T/C (second compound 0.1 µM, first compound 0.949 µM)?
Answer: The viability, T/C was 9.1%.

Question: What about the viability, T/C (second compound 0.1 µM, first compound 3 µM) of the same compound?
Answer: Its viability, T/C is 6.69%.

Question: And the viability, T/C (second compound 0.316 µM, first compound 0.00949 µM)?
Answer: The viability, T/C was 12.1%.

Question: And the viability, T/C (second compound 0.316 µM, first compound 0.03 µM)?
Answer: Its viability, T/C is 11.2%.

Question: And the viability, T/C (second compound 0.316 µM, first compound 0.0949 µM)?
Answer: The viability, T/C was 10.1%.

Question: What about the viability, T/C (second compound 0.316 µM, first compound 0.3 µM) of the same compound?
Answer: The viability, T/C was 9.23%.

Question: And the viability, T/C (second compound 0.316 µM, first compound 0.949 µM)?
Answer: The viability, T/C was 8.49%.

Question: And the viability, T/C (second compound 0.316 µM, first compound 3 µM)?
Answer: The viability, T/C was 7.04%.

Question: And the viability, T/C (second compound 1 µM, first compound 0.00949 µM)?
Answer: The viability, T/C was 9.97%.

Question: And the viability, T/C (second compound 1 µM, first compound 0.03 µM)?
Answer: The viability, T/C was 10.1%.

Question: What about the viability, T/C (second compound 1 µM, first compound 0.0949 µM) of the same compound?
Answer: Its viability, T/C is 10.6%.

Question: And the viability, T/C (second compound 1 µM, first compound 0.3 µM)?
Answer: The viability, T/C was 8.23%.

Question: And the viability, T/C (second compound 1 µM, first compound 0.949 µM)?
Answer: Its viability, T/C is 8.1%.

Question: And the viability, T/C (second compound 1 µM, first compound 3 µM)?
Answer: The viability, T/C was 6.68%.
